Experimental data taken from ChEMBL document CHEMBL3621049, “Imidazole derivatives show anticancer potential by inducing apoptosis and cellular senescence” (2014).
Calls of active or inactive are those of the source.

Columns and labels:
Type in all cases: functional, cell-based
[1] = tested on: Malme-3M; assay: Growth inhibition of human MALME-3M cells at 10 uM by sulforhodamine B assay
[2] = tested on: SK-OV-3; assay: Growth inhibition of human SKOV3 cells at 10 uM by sulforhodamine B assay
[3] = tested on: U-251; assay: Growth inhibition of human U251 cells at 10 uM by sulforhodamine B assay
[4] = tested on: SNB-75; assay: Growth inhibition of human SNB75 cells at 10 uM by sulforhodamine B assay
[5] = tested on: NCI-H460; assay: Growth inhibition of human NCI-H460 cells at 10 uM by sulforhodamine B assay
[6] = tested on: OVCAR-3; assay: Growth inhibition of human OVCAR3 cells at 10 uM by sulforhodamine B assay
[7] = tested on: TK-10; assay: Growth inhibition of human TK10 cells at 10 uM by sulforhodamine B assay
[8] = tested on: HL-60(TB); assay: Growth inhibition of human HL-60(TB) cells at 10 uM by sulforhodamine B assay
[9] = tested on: HCC 2998; assay: Growth inhibition of human HCC2998 cells at 10 uM by sulforhodamine B assay
[10] = tested on: MOLT-4; assay: Growth inhibition of human MOLT4 cells at 10 uM by sulforhodamine B assay
[11] = tested on: CAKI-1; assay: Growth inhibition of human Caki1 cells at 10 uM by sulforhodamine B assay
[12] = tested on: NCI-H23; assay: Growth inhibition of human NCI-H23 cells at 10 uM by sulforhodamine B assay
[13] = tested on: SNB-19; assay: Growth inhibition of human SNB19 cells at 10 uM by sulforhodamine B assay
[14] = tested on: OVCAR-4; assay: Growth inhibition of human OVCAR4 cells at 10 uM by sulforhodamine B assay
[15] = tested on: SW-620; assay: Growth inhibition of human SW620 cells at 10 uM by sulforhodamine B assay
[16] = tested on: HOP-92; assay: Growth inhibition of human HOP92 cells at 10 uM by sulforhodamine B assay
[17] = tested on: MDA-MB-435; assay: Growth inhibition of human MDA-MB-435 cells at 10 uM by sulforhodamine B assay
[18] = tested on: LOX IMVI; assay: Growth inhibition of human LOXIMVI cells at 10 uM by sulforhodamine B assay
[19] = tested on: HOP-62; assay: Growth inhibition of human HOP62 cells at 10 uM by sulforhodamine B assay
[20] = tested on: NCI-H522; assay: Growth inhibition of human NCI-H522 cells at 10 uM by sulforhodamine B assay
[21] = tested on: SK-MEL-28; assay: Growth inhibition of human SK-MEL-28 cells at 10 uM by sulforhodamine B assay
[22] = tested on: RXF 393; assay: Growth inhibition of human RXF393 cells at 10 uM by sulforhodamine B assay
[23] = tested on: DU-145; assay: Growth inhibition of human DU145 cells at 10 uM by sulforhodamine B assay
[24] = tested on: NCI-H226; assay: Growth inhibition of human NCI-H226 cells at 10 uM by sulforhodamine B assay
[25] = tested on: SN12C; assay: Growth inhibition of human SN12C cells at 10 uM by sulforhodamine B assay
[26] = tested on: M14; assay: Growth inhibition of human M14 cells at 10 uM by sulforhodamine B assay
[27] = tested on: 786-0; assay: Growth inhibition of human 786-0 cells at 10 uM by sulforhodamine B assay
[28] = tested on: NCI-H322M; assay: Growth inhibition of human NCI-H322M cells at 10 uM by sulforhodamine B assay
[29] = tested on: MDA-MB-468; assay: Growth inhibition of human MDA-MB-468 cells at 10 uM by sulforhodamine B assay
[30] = tested on: OVCAR-5; assay: Growth inhibition of human OVCAR5 cells at 10 uM by sulforhodamine B assay
[31] = tested on: UACC-62; assay: Growth inhibition of human UACC62 cells at 10 uM by sulforhodamine B assay
[32] = tested on: HCT-116; assay: Growth inhibition of human HCT116 cells at 10 uM by sulforhodamine B assay
[33] = tested on: OVCAR-8; assay: Growth inhibition of human OVCAR8 cells at 10 uM by sulforhodamine B assay
[34] = tested on: CCRF-CEM; assay: Growth inhibition of human CCRF-CEM cells at 10 uM by sulforhodamine B assay
[35] = tested on: SR; assay: Growth inhibition of human SR cells at 10 uM by sulforhodamine B assay
[36] = tested on: KM12; assay: Growth inhibition of human KM12 cells at 10 uM by sulforhodamine B assay
[37] = tested on: IGROV-1; assay: Growth inhibition of human IGROV1 cells at 10 uM by sulforhodamine B assay
[38] = tested on: T47D; assay: Growth inhibition of human T47D cells at 10 uM by sulforhodamine B assay
[39] = tested on: SF-295; assay: Growth inhibition of human SF295 cells at 10 uM by sulforhodamine B assay
[40] = tested on: UO-31; assay: Growth inhibition of human UO31 cells at 10 uM by sulforhodamine B assay
[41] = tested on: A498; assay: Growth inhibition of human A498 cells at 10 uM by sulforhodamine B assay
[42] = tested on: BT-549; assay: Growth inhibition of human BT549 cells at 10 uM by sulforhodamine B assay
[43] = tested on: Hs-578T; assay: Growth inhibition of human Hs 578T cells at 10 uM by sulforhodamine B assay
[44] = tested on: MCF7; assay: Growth inhibition of human MCF7 cells at 10 uM by sulforhodamine B assay
[45] = tested on: PC-3; assay: Growth inhibition of human PC3 cells at 10 uM by sulforhodamine B assay
[46] = tested on: SF-268; assay: Growth inhibition of human SF268 cells at 10 uM by sulforhodamine B assay
[47] = tested on: SF-539; assay: Growth inhibition of human SF539 cells at 10 uM by sulforhodamine B assay
[48] = tested on: HCT-15; assay: Growth inhibition of human HCT15 cells at 10 uM by sulforhodamine B assay
[49] = tested on: A549; assay: Growth inhibition of human A549/ATCC cells at 10 uM by sulforhodamine B assay
[50] = tested on: HT-29; assay: Growth inhibition of human HT-29 cells at 10 uM by sulforhodamine B assay
[51] = tested on: SK-MEL-2; assay: Growth inhibition of human SK-MEL-2 cells at 10 uM by sulforhodamine B assay
[52] = tested on: RPMI-8226; assay: Growth inhibition of human RPMI8226 cells at 10 uM by sulforhodamine B assay
[53] = tested on: NCI/ADR-RES; assay: Growth inhibition of human NCI/ADR-RES cells at 10 uM by sulforhodamine B assay
[54] = tested on: UACC-257; assay: Growth inhibition of human UACC257 cells at 10 uM by sulforhodamine B assay
[55] = tested on: SK-MEL-5; assay: Growth inhibition of human SK-MEL-5 cells at 10 uM by sulforhodamine B assay
[56] = tested on: ACHN; assay: Growth inhibition of human ACHN cells at 10 uM by sulforhodamine B assay
[57] = tested on: COLO 205; assay: Growth inhibition of human COLO205 cells at 10 uM by sulforhodamine B assay
[58] = tested on: MDA-MB-231; assay: Growth inhibition of human MDA-MB-231 cells at 10 uM by sulforhodamine B assay
[59] = tested on: K562; assay: Growth inhibition of human K562 cells at 10 uM by sulforhodamine B assay

Measured: growth inhibition (GI)

COc1ccc(-c2nc(-c3ccccc3)c(-c3ccccc3)n2C2CC2)cc1OC1CCCCC1
active: all assays above

CCCCCCn1c(-c2ccc(OC)c(OC3CCCC3)c2)nc(-c2ccccc2)c1-c1ccccc1
active: all assays above
